# Like-named read-outs stand apart in the source and are kept apart here.
# Columns and labels:
# Format in all cases: cell-based
# [1] = test system: K. pneumoniae ATCC 13883 wild type and mutants; assay: MIC, wild type and GSK2251052 resistant mutants; details: for MIC: Klebsiella pneumoniae
# Description: (§1) Spontaneous Resistance Frequency was determined in vitro for GSK2251052 and the resistance mutants in E. coli ATCC 25922, K. pneumoniae ATCC 13883, and P. aeruginosa ATCC 27853 strains were characterized. GSK2251052 was prepared as described in U.S. Pat. No. 7,816,344 (the entire contents of which are hereby incorporated by reference herein). LB broth, Mueller Hinton II broth (adjusted), and Difco noble agar were obtained from Becton Dickinson (Cockeysville, Md., USA). M9 minimal broth containing 1×M9 salt, 0.5 μg/ML thiamine, 1 mM MgSO4, 0.1 mM CaCl2, 2% glucose, was obtained from Teknova (Hollister, Calif., USA). Antibacterial agents ciprofloxacin, ceftazidime, chloramphenicol, gentamycin, kanamycin, polymixin B, tobramycin and trimethoprim, and amino acids were obtained from Sigma Chemicals (St. Louis, Mo., USA). Strains were obtained from ATCC (Manassas, Va., USA).
# (§2) Susceptibility tests were performed following the recommendations for aerobic bacteria (M7-A7) from the Clinical and Laboratories Standards Institute (CLSI).
# (§3) Laboratory generated mutants resistant to GSK2251052 contain mutations in the editing domain of LeuRS. Six to ten GSK2251052 resistant colonies of E. coli ATCC 25922, K. pneumoniae ATCC 13883 and P. aeruginosa ATCC 27853 were selected for further analysis and their MICs to GSK2251052 were determined (Table 4-7).
# [2] = test system: E. coli ATCC 25922 wild type and mutants; assay: MIC, wild type and GSK2251052 resistant mutants; details: for MIC: Escherichia coli
# Description: as §1, §2, §3
# [3] = test system: P. aeruginosa ATCC 27853 wild type and mutants; assay: MIC, wild type and GSK2251052 resistant mutants; details: for MIC: Pseudomonas aeruginosa
# Description: as §1, §2, §3
# [4] = test system: K. pneumoniae ATCC 13883; assay: Spontaneous frequency of resistance; details: 24 h
# Description: as §1
# (§4) Selection of resistance to GSK2251052 was attempted by spreading various amounts of bacteria onto MHBII noble agar plates containing 4×MIC (minimum inhibitory concentration) or 10×MIC of GSK2251052. Colonies were counted after 24 hours and 48 hours incubation at 37° C. The resistance of these colonies was confirmed by their ability to grow on plates containing GSK2251052 at either 4× or 10×MIC. Frequency of resistance was determined by dividing the number of resistant mutants by the total number of cells plated as determined by plating dilutions of the overnight culture on LB plates.
# [5] = test system: P. aeruginosa ATCC 27853; assay: Spontaneous frequency of resistance; details: 24 h
# Description: as §1, §4
# [6] = test system: E. coli ATCC 25922; assay: Spontaneous frequency of resistance; details: 24 h
# Description: as §1, §4
# [7] = test system: E. coli ATCC 25922, K. pneumoniae ATCC 13883 and P. aeruginosa ATCC 27853; assay: MIC, three strains and their mutants summarised; details: MIC in E. coli, P. aeruginosa and K. pneumoniae mutants versus wild-type
# Description: as §1, §2, §3
# GSK2251052 resistant mutants were not cross-resistant to commercial antibiotics.
# [8] = test system: Providencia spp.(all); assay: microbe, parasite or virus in culture; details: Providencia spp.(all); for MIC90: 68 isolates
# [9] = test system: Morganella morganii (AmpC); assay: microbe, parasite or virus in culture; details: Morganella morganii (AmpC); for MIC90: 18 isolates
# [10] = test system: Enterobacter cloacae (AmpC); assay: microbe, parasite or virus in culture; details: Enterobacter cloacae (AmpC); for MIC90: 50 isolates
# [11] = test system: Klebsiella spp. (KPC); assay: microbe, parasite or virus in culture; details: Klebsiella spp. (KPC); for MIC90: 26 isolates
# [12] = test system: Enterobacter aerogenes (WT); assay: microbe, parasite or virus in culture; details: Enterobacter aerogenes (WT); for MIC90: 199 isolates
# [13] = test system: E. coli (ESBL); assay: microbe, parasite or virus in culture; details: E. coli (ESBL); for MIC90: 27 isolates
# [14] = test system: Proteus mirabilis (WT); assay: microbe, parasite or virus in culture; details: Proteus mirabilis (WT); for MIC90: 235 isolates
# [15] = test system: Enterobacteriaceae; assay: organism not typed; details: Enterobacteriaceae; for MIC90: 2029 isolates
# [16] = test system: E. coli (WT); assay: microbe, parasite or virus in culture; details: E. coli (WT); for MIC90: 214 isolates
# [17] = test system: Enterobacter aerogenes (AmpC); assay: microbe, parasite or virus in culture; details: Enterobacter aerogenes (AmpC); for MIC90: 51 isolates
# [18] = test system: Citrobacter freundii (AmpC); assay: microbe, parasite or virus in culture; details: Citrobacter freundii (AmpC); for MIC90: 60 isolates
# [19] = test system: Proteus vulgaris (WT); assay: microbe, parasite or virus in culture; details: Proteus vulgaris (WT); for MIC90: 41 isolates
# [20] = test system: Enterobacter cloacae (WT); assay: microbe, parasite or virus in culture; details: for MIC90: 202 isolates
# [21] = test system: Klebsiella spp. (ESBL); assay: microbe, parasite or virus in culture; details: Klebsiella spp. (ESBL); for MIC90: 71 isolates
# [22] = test system: S. marcescens (AmpC); assay: microbe, parasite or virus in culture; details: S. marcescens (AmpC); for MIC90: 26 isolates
# [23] = test system: Klebsiella spp. (WT); assay: microbe, parasite or virus in culture; details: Klebsiella spp. (WT); for MIC90: 159 isolates
compound,measurement,setting,value
NC[C@H]1O[C@H](O[C@H]2[C@H](O)[C@@H](O[C@H]3O[C@H](CO)[C@@H](O)[C@H](N)[C@H]3O)[C@H](N)C[C@@H]2N)[C@H](N)C[C@@H]1O [Tobramycin],MIC,"[1]; ATCC13883, K wt., read-out: MICs",0.5 µg/mL
same,MIC,"[1]; ATCC13883, read-out: MICs, mutant K 104",0.5 µg/mL
same,MIC,"[1]; ATCC13883, read-out: MICs, mutant K 105",0.5 µg/mL
same,MIC,"[1]; ATCC13883, read-out: MICs, mutant K 107",0.5 µg/mL
same,MIC,"[1]; ATCC13883, read-out: MICs, mutant K 108",0.5 µg/mL
same,MIC,"[1]; ATCC13883, read-out: MICs, mutant K 110",0.5 µg/mL
same,MIC,"[2]; ATCC25922, E wt, read-out: MICs",1 µg/mL
same,MIC,"[2]; ATCC25922, read-out: MICs, mutant E 101",1 µg/mL
same,MIC,"[2]; ATCC25922, read-out: MICs, mutant E 102",2 µg/mL
same,MIC,"[2]; ATCC25922, read-out: MICs, mutant E 107",1 µg/mL
same,MIC,"[3]; ATCC27853, P wt., read-out: MICs",0.5 µg/mL
same,MIC,"[3]; ATCC27853, read-out: MICs, mutant P 101",0.5 µg/mL
same,MIC,"[3]; ATCC27853, read-out: MICs, mutant P106",0.5 µg/mL
same,MIC,"[3]; ATCC27853, read-out: MICs, mutant P108",0.5 µg/mL
same,Frequency of Resistance,[4]; 4 X MIC,1 × 10^−6
same,Frequency of Resistance,[4]; 10 X MIC,5 × 10^−8
same,Frequency of Resistance,[5]; 4 X MIC,1 × 10^−6
same,Frequency of Resistance,[5]; 10 X MIC,9 × 10^−8
same,Frequency of Resistance,[6]; 4 X MIC,1 × 10^−5
same,Frequency of Resistance,[6]; 10 X MIC,4 × 10^−6
same,cross-resistance of GSK2251052 resistant mutants,[7],did not have any significant difference in MIC values than wild-type
Gentamicin,MICs,[1]; K wt.,1 µg/mL
same,MICs,[1]; mutant K 104,1 µg/mL
same,MICs,[1]; mutant K 105,1 µg/mL
same,MICs,[1]; mutant K 107,1 µg/mL
same,MICs,[1]; mutant K 108,0.5 µg/mL
same,MICs,[1]; mutant K 110,1 µg/mL
same,MICs,[2]; E wt,2 µg/mL
same,MICs,[2]; mutant E 101,1 µg/mL
same,MICs,[2]; mutant E 102,1 µg/mL
same,MICs,[2]; mutant E 107,1 µg/mL
same,MICs,[3]; P wt.,8 µg/mL
same,MICs,[3]; mutant P 101,4 µg/mL
same,MICs,[3]; mutant P106,4 µg/mL
same,MICs,[3]; mutant P108,4 µg/mL
same,MIC90,[8],> 16 µg/mL
same,MIC90,[9],> 16 µg/mL
same,MIC90,[10],> 16 µg/mL
same,MIC90,[11],16 µg/mL
same,MIC90,[12],1 µg/mL
same,MIC90,[13],> 16 µg/mL
same,MIC90,[14],4 µg/mL
same,MIC90,[15],16 µg/mL
same,MIC90,[16],> 16 µg/mL
same,cross-resistance of GSK2251052 resistant mutants,[7],did not have any significant difference in MIC values than wild-type
same,MIC90,[17],4 µg/mL
same,MIC90,[18],> 16 µg/mL
same,MIC90,[19],2 µg/mL
same,MIC90,[20],1 µg/mL
same,MIC90,[21],> 16 µg/mL
same,MIC90,[22],> 16 µg/mL
same,MIC90,[23],1 µg/mL
Polymixin B,MICs,[1]; K wt.,4 µg/mL
same,MICs,[1]; mutant K 104,8 µg/mL
same,MICs,[1]; mutant K 105,4 µg/mL
same,MICs,[1]; mutant K 107,2 µg/mL
same,MICs,[1]; mutant K 108,4 µg/mL
same,MICs,[1]; mutant K 110,4 µg/mL
same,MICs,[2]; E wt,4 µg/mL
same,MICs,[2]; mutant E 101,4 µg/mL
same,MICs,[2]; mutant E 102,4 µg/mL
same,MICs,[2]; mutant E 107,4 µg/mL
same,MICs,[3]; P wt.,4 µg/mL
same,MICs,[3]; mutant P 101,4 µg/mL
same,MICs,[3]; mutant P106,2 µg/mL
same,MICs,[3]; mutant P108,4 µg/mL
same,MIC90,[8],8 µg/mL
same,susceptibility category of MIC90,[8]; polymixinB criteria,*** (resistant ≧8 μg/mL)
same,MIC90,[9],> 8 µg/mL
same,susceptibility category of MIC90,[9]; polymixinB criteria,*** (resistant ≧8 μg/mL)
same,MIC90,[10],4 µg/mL
same,susceptibility category of MIC90,[10]; polymixinB criteria,** (intermediate 4 μg/mL)
same,MIC90,[11],> 8 µg/mL
same,susceptibility category of MIC90,[11]; polymixinB criteria,*** (resistant ≧8 μg/mL)
same,MIC90,[12],4 µg/mL
same,susceptibility category of MIC90,[12]; polymixinB criteria,** (intermediate 4 μg/mL)
same,MIC90,[13],2 µg/mL
same,susceptibility category of MIC90,[13]; polymixinB criteria,* (susceptible ≦2 μg/mL)
same,MIC90,[14],> 8 µg/mL
same,susceptibility category of MIC90,[14]; polymixinB criteria,*** (resistant ≧8 μg/mL)
same,MIC90,[15],> 8 µg/mL
same,susceptibility category of MIC90,[15]; polymixinB criteria,*** (resistant ≧8 μg/mL)
same,MIC90,[16],1 µg/mL
same,susceptibility category of MIC90,[16]; polymixinB criteria,* (susceptible ≦2 μg/mL)
same,cross-resistance of GSK2251052 resistant mutants,[7],did not have any significant difference in MIC values than wild-type
same,MIC90,[17],2 µg/mL
same,susceptibility category of MIC90,[17]; polymixinB criteria,* (susceptible ≦2 μg/mL)
same,MIC90,[18],1 µg/mL
same,susceptibility category of MIC90,[18]; polymixinB criteria,* (susceptible ≦2 μg/mL)
same,MIC90,[19],> 8 µg/mL
same,susceptibility category of MIC90,[19]; polymixinB criteria,*** (resistant ≧8 μg/mL)
same,MIC90,[20],> 8 µg/mL
same,susceptibility category of MIC90,[20]; polymixinB criteria,*** (resistant ≧8 μg/mL)
same,MIC90,[21],2 µg/mL
same,susceptibility category of MIC90,[21]; polymixinB criteria,* (susceptible ≦2 μg/mL)
same,MIC90,[22],> 8 µg/mL
same,susceptibility category of MIC90,[22]; polymixinB criteria,*** (resistant ≧8 μg/mL)
same,MIC90,[23],1 µg/mL
same,susceptibility category of MIC90,[23]; polymixinB criteria,* (susceptible ≦2 μg/mL)

# — US9889146B2, “Benzoxaborole compounds and uses thereof” (priority 2012, dated 2018)
